Results on 1 molecule are retold here after US20150125550A1, “APPLICATION OF 2,9-DI-SEC-BUTYL-1,10-PHENANTHROLINE AS A GLIOBLASTOMA TUMOR CHEMOTHERAPY” (priority 2013, published 2015).

One assay concerns A549 lung cancer cells. The experiment in a line: SRB colorimetric assay, A549 lung cancer cells, 72 hours. As to conditions: Homo sapiens; A549, 72 hours, average ± SD of three curves. The assay is classed as cell-based, human. The procedure:
A549 cells were cultured in RPMI media supplemented with 10% Fetal Bovine Serum and 1% nonessential amino acids. Sub-culturing was carried out every 3-4 days and was completed by removing the supernatant media and treating the adherent cells with 1.0 mL of a 0.25% (w/v) Trypsin/0.5 mM EDTA solution. The cells were then treated for approximately 3 minutes in a 37° C. incubator under a 5% CO2 atmosphere. Trypsinization was stopped by the addition of 7.0 mL of cell culture media, the suspended cells were collected by centrifugation, and the resulting cell pellet was re-suspended in fresh cell culture media. The cells were then diluted 1:4 by volume and incubated in a 37° C. incubator with 5% CO2. Cells were grown to 80-90% confluency prior to being used in the SRB colorimetric assays.
To test the effects of compounds 1-18 on the growth of A549 lung cancer cells, SRB cytotoxicity assays were done as described by Skehan et al. Cells were maintained in RPMI media as described above, collected, and diluted so that cells could be seeded in 96-well plates at a density of 4,000 cells/well. The 96-well plate was incubated overnight at 37° C. under a 5% CO2 atmosphere. Subsequently, sterifiltered DMSO stock solutions of the drugs were added to the wells in various concentrations (0-25 μM) and the 96-well plate was incubated at 37° C. under a 5% CO2 for an additional 72 hours. The supernatant cell culture medium was then removed and the cells were fixed for 1 hour with 10% cold trichloroacetic acid (100 μL per well). The trichloroacetic acid was discarded and the plates were washed 5 times with de-ionized water and air dried. After being stained with 0.4% SRB ([…]) and incubated at room temperature for 10 minutes, the cells were washed 5 times with 1% acetic acid and air dried. The bound SRB was dissolved in 10 mM unbuffered Tris, pH 10.5 ([…]) for 10 minutes at room temperature, and the absorbance at 492 nm was measured using a microplate reader. The percent cell growth was then calculated based upon the absorbance values relative to control samples not containing any drug. Each drug concentration was done in triplicate to yield a percent growth vs. drug concentration curve, and these growth curves were subsequently repeated two additional times. The growth curves from the three experiments were then plotted in GraphPad Prism and best-fit curves were used to generate the IC50 values for each curve.
A general note: Sulforhodamine B stains cellular protein and so reports cell mass.

Another assay relates to GL-26 glioma cells. The experiment in a line: SRB recovery assay (48 hr drug, then 48 hr fresh media). The assay is classed as cell-based, murine (C57BL/6). As to conditions: 48 hr drug + 48 hr recovery. Here is the method: (§1) The sulforhodamine B (SRB) cytotoxicity assays were adapted from Skehan et al. (22). Briefly, either HFF, primary astrocytes or GL-26 cells were plated in 96-well plates at a density of 4,000 cells/well in a volume of 100 µL overnight at 37° C. and 5% CO2. DMSO stock solutions of SBP, MSBP or TMZ were used at a concentration range of 0.1-25 μM for 48 hr before the supernatant was discarded and the cells were fixed for 1 hr with 10% cold trichloroacetic acid (100 μL, per well). Cells used in recovery assay received fresh media for 48 hrs following the 48 hr drug incubation. The plate was then washed 5 times with de-ionized water, air dried, and stained with 0.4% SRB for 10 min (50 μL, per well). After washing 5 times in 1% acetic acid and air-drying, bound SRB was dissolved in 10 mM unbuffered Tris base (pH 10.5; 100 μL, per well). Bound SRB was then read by absorbance at 492 nm on a SpectraMax plate reader (Molecular Devices). The percent survival was then calculated based upon the absorbance values relative to control wells (0 μM SBP in 0.1% DMSO).
To test if constant SBP administration is necessary to maintain growth inhibition, an SRB recovery assay was performed where GL-26 cells were plated and treated as above, but SBP was removed after a 48-hour incubation and replaced by fresh media. […]

Assay [1] deals with GL-26 murine glioma cells. The experiment in a line: SRB growth assay of SBP and gold complexes on GL-26 (Example 4). The assay is classed as cell-based, murine (C57BL/6). As to conditions: Mus musculus, GL26, 48 hr, read-out: concentration inhibiting GL-26 by 50%. The procedure:
The murine (C57BL/6) glioma cell line, GL-26, which is highly tumorigenic in the C57BL/6 mice, was used. GL-26 cells were cultured in DMEM/F12 supplemented with 10% FCS, 1% penicillin/streptomycin, 1% L-glutamine and 1% non-essential amino acids. Human foreskin fibroblasts (HFFs) were cultured in DMEM/F12 supplemented with 10% FCS and 1% penicillin/streptomycin. Primary murine astrocytes were purified from C57BL/6 neonate brains and cultured in DMEM/F12 supplemented with 10% FCS, 1% non-essential amino acids, 1% L-glutamine, 50 IU/ml penicillin, […] and 10 mM Hepes buffer.
as §1, with “al (21).” for “al. (22).”, “μL” for “μL,”, “The plate was then washed 5 times with de-ionized water, air dried, and stained with 0.4% SRB for 10 min (50 μL, per well). After washing 5 times in 1% acetic acid and air-drying, bound SRB was dissolved in 10 mM unbuffered Tris base (pH 10.5; 100 μL, per well).” left out

The subject of assay [2] is A549 and H1703 lung cancer lines, and 886LN, Tu212, and Tu686 head/neck cancer lines. As to conditions: head-neck and lung tumor lines; cited from earlier work.

Structures are written as SMILES.

Turning to `CCC(C)c1ccc2ccc3ccc(C(C)CC)nc3c2n1` (stereo not shown) [Compound 1, 2,9-di-sec-butyl-1,10-phenanthroline], the IC50 with A549 lung cancer cells worked out at 420 ± 170 nM. The “GL-26 cell growth inhibition 48 hours after completion of treatment” value in the assay with GL-26 glioma cells (0.8 mM SBP (so in the source)) was determined as 31.5±6.6%. Moreover, the “GL-26 cell growth inhibition after extra incubation period” value with GL-26 glioma cells (1.6-25 mM SBP (so in the source)) was “up to 85.4±0.2%”. Also, in assay [1], the IC50 lay in the range of 800 to 1600 nM. In assay [2], the “IC50 times lower than cisplatin” value was 20-100 times, the “IC50 times lower than the parent gold(III) complex” value was 4-14 times and the “in-vitro IC50 values” is on record as “in the nanomolar concentration regime”.
